The term IC50 denotes the point on the concentration scale where inhibition reaches its midpoint.

This is an account of results in ChEMBL document CHEMBL4613209, “Quinolone hybrids and their anti-cancer activities: An overview” (Eur J Med Chem, 2019).

Common to all, as to assay type: functional, cell-based
Experiment [1] relates to HL-60. The experiment is described as follows: Cytotoxicity against human HL60 cells assessed as reduction in cell viability.
In experiment [2] the test system is L1210. The experiment is described as follows: Cytotoxicity against mouse L1210 cells assessed as reduction in cell viability.
For experiment [3], the system named is CHO. The experiment is described as follows: Cytotoxicity against CHO cells assessed as reduction in cell viability. Conditions: Cricetulus griseus.
Experiment [4] relates to SMMC-7721. The experiment is described as follows: Antiproliferative activity against human SMMC7721 cells after 24 to 72 hrs by MTT assay. (In general: Tetrazolium assays rely on reduction of a dye to a coloured formazan, in cell work by metabolically active cells.)
Experiment [5] has as its system HL-60. The experiment is described as follows: Antiproliferative activity against human HL60 cells after 24 to 72 hrs by MTT assay.
The subject of experiment [6] is L1210. Kind of experiment: Antiproliferative activity against mouse L1210 cells after 24 to 72 hrs by MTT assay.
In experiment [7] the test system is Hep 3B2. Kind of experiment: Antiproliferative activity against human Hep3B cells after 24 to 72 hrs by MTT assay.

Take `CCN1CCN(c2cc3c(cc2F)c(=O)c(-c2nnc(-c4cn(C5CC5)c5cc(N6CCNCC6)c(F)cc5c4=O)o2)cn3C2CC2)CC1`: the IC50 in experiment [1], in experiment [2] and in experiment [3] was 0.26 to 14.5 µM each time.
Consider `CN1CCN(c2cc3c(nc2F)c(=O)c(-c2nnc4sc(-c5cn(C6CC6)c6cc(N7CCNCC7)c(F)cc6c5=O)nn24)cn3C2CC2)CC1`, for which the IC50 in experiment [1], in experiment [2] and in experiment [3] was 0.12 to 5.2 µM throughout.
Consider `C[C@H]1COc2c(N3CCN(C)CC3)c(F)cc3c(=O)c(-c4nn5c(-c6cn(C7CC7)c7cc(N8CCN(C)CC8)c(F)cc7c6=O)nnc5s4)cn1c23`, for which the IC50 in experiment [1], in experiment [2] and in experiment [3] was 0.12 to 5.2 µM in each case.
Turning to `CCn1cc(-c2nnc(-c3cn(C4CC4)c4cc(N5CCNCC5)c(F)cc4c3=O)o2)c(=O)c2cc(F)c(N3CCNCC3)cc21`, the IC50 in experiment [1], in experiment [2] and in experiment [3] was 0.26 to 14.5 µM each time.
`CCN1CCN(c2cc3c(cc2F)c(=O)c(-c2nnc4sc(-c5cn6c7c(c(N8CCN(C)CC8)c(F)cc7c5=O)OC[C@@H]6C)nn24)cn3C2CC2)CC1`: the IC50 in experiment [1], in experiment [2] and in experiment [3] was 0.12 to 5.2 µM each time.
With `CN1CCN(c2cc3c(cc2F)c(=O)c(-c2nnc4sc(-c5cn(C6CC6)c6nc(N7CCN(C)CC7)c(F)cc6c5=O)nn24)cn3C2CC2)CC1`, the IC50 in experiment [1], in experiment [2] and in experiment [3] was 0.12 to 5.2 µM throughout.
As to `COc1ccc(/C=N/NC(=O)c2cn(C3CC3)c3cc(N/N=C/c4ccc(OC)cc4)c(F)cc3c2=O)cc1`, the IC50 in experiment [1], in experiment [2] and in experiment [3] was 1.5 to 23.5 µM each time.
For `COc1cc(/C=N/NC(=O)c2cn(C3CC3)c3cc(N/N=C/c4cc(OC)c(OC)c(OC)c4)c(F)cc3c2=O)cc(OC)c1OC`, the IC50 in experiment [1], in experiment [2] and in experiment [3] was 1.5 to 23.5 µM each time.
Take `O=C(N/N=C/c1ccc2c(c1)OCO2)c1cn(C2CC2)c2cc(N/N=C/c3ccc4c(c3)OCO4)c(F)cc2c1=O`: the IC50 in experiment [1], in experiment [2] and in experiment [3] was 1.5 to 23.5 µM each time.
Turning to `CCN1CCN(c2cc3c(cc2F)c(=O)c(-c2nnc4sc(-c5cn(CC)c6cc(N7CCN(C)CC7)c(F)cc6c5=O)nn24)cn3C2CC2)CC1`, the IC50 in experiment [1], in experiment [2] and in experiment [3] was 0.12 to 5.2 µM each time.
For the compound `C[C@H]1COc2c(N3CCN(C)CC3)c(F)cc3c(=O)c(-c4nnc(-c5cn(C6CC6)c6cc(N7CCN(C)CC7)c(F)cc6c5=O)o4)cn1c23`, the IC50 in experiment [1], in experiment [2] and in experiment [3] was 0.26 to 14.5 µM each time.
`O=c1c(-c2nnc(-c3cn(C4CC4)c4cc(N5CCNCC5)c(F)cc4c3=O)o2)cn(C2CC2)c2cc(N3CCNCC3)c(F)cc12`: the IC50 in experiment [1], in experiment [2] and in experiment [3] was 0.26 to 14.5 µM each time.
With `COc1cc(/C=N/NC(=O)c2cn(C3CC3)c3cc(N/N=C/c4ccc(O)c(OC)c4)c(F)cc3c2=O)ccc1O`, the IC50 in experiment [1], in experiment [2] and in experiment [3] was 1.5 to 2.8 µM in each case.
Take `C[C@H]1COc2c(N3CCN(C)CC3)c(F)cc3c(=O)c(-c4nn5c(-c6cn(C7CC7)c7cc(N8CCNCC8)c(F)cc7c6=O)nnc5s4)cn1c23`: the IC50 in experiment [1], in experiment [2] and in experiment [3] was 0.12 to 5.2 µM throughout.
Regarding `O=C(N/N=C/c1ccccc1)c1cn(C2CC2)c2cc(N/N=C/c3ccccc3)c(F)cc2c1=O`, the IC50 in experiment [1], in experiment [2] and in experiment [3] was 1.5 to 23.5 µM each time.
Consider `CCN1CCN(c2cc3c(cc2F)c(=O)c(-c2nnc4sc(-c5cn(C6CC6)c6cc(N7CCN(C)CC7)c(F)cc6c5=O)nn24)cn3C2CC2)CC1`, for which the IC50 in experiment [1], in experiment [2] and in experiment [3] was 0.12 to 5.2 µM throughout.
Turning to `CC1COc2c(N3CCN(C)CC3)c(F)cc3c(=O)c(-c4nnc(-c5cn(C6CC6)c6cc(N7CCN(C)CC7)c(F)cc6c5=O)o4)cn1c23` (stereo unspecified), the IC50 in experiment [1], in experiment [2] and in experiment [3] was 0.26 to 14.5 µM in each case.
Take `CC1COc2c(N3CCN(C)CC3)c(F)cc3c(=O)c(-c4nn5c(-c6cn(C7CC7)c7cc(N8CCNCC8)c(F)cc7c6=O)nnc5s4)cn1c23` (stereo unspecified): the IC50 in experiment [1], in experiment [2] and in experiment [3] was 14.2 to 23.7 µM in each case.
`CCN1CCN(c2cc3c(cc2F)c(=O)c(-c2nnc4sc(-c5cn(CC)c6cc(N7CCNCC7)c(F)cc6c5=O)nn24)cn3C2CC2)CC1`: the IC50 in experiment [1], in experiment [2] and in experiment [3] was 0.12 to 5.2 µM in each case.
`O=c1c(-c2nn3c(-c4cn(C5CC5)c5cc(N6CCNCC6)c(F)cc5c4=O)nnc3s2)cn(C2CC2)c2cc(N3CCNCC3)c(F)cc12`: the IC50 in experiment [1], in experiment [2] and in experiment [3] was 0.12 to 5.2 µM throughout.
For the compound `O=C(N/N=C/c1ccc([N+](=O)[O-])cc1)c1cn(C2CC2)c2cc(N/N=C/c3ccc([N+](=O)[O-])cc3)c(F)cc2c1=O`, the IC50 in experiment [1], in experiment [2] and in experiment [3] was 1.5 to 23.5 µM throughout.
Regarding `CCN1CCN(c2cc3c(nc2F)c(=O)c(-c2nn4c(-c5cn(C6CC6)c6cc(N7CCN(C)CC7)c(F)cc6c5=O)nnc4s2)cn3C2CC2)CC1`, the IC50 in experiment [1], in experiment [2] and in experiment [3] was 0.12 to 5.2 µM in each case.
Consider `CN1CCN(c2cc3c(cc2F)c(=O)c(-c2nn4c(-c5cn(C6CC6)c6cc(N7CCNCC7)c(F)cc6c5=O)nnc4s2)cn3C2CC2)CC1`, for which the IC50 in experiment [1], in experiment [2] and in experiment [3] was 0.12 to 5.2 µM throughout.
`O=C(N/N=C/c1ccc(Cl)cc1)c1cn(C2CC2)c2cc(N/N=C/c3ccc(Cl)cc3)c(F)cc2c1=O`: the IC50 in experiment [1], in experiment [2] and in experiment [3] was 1.5 to 23.5 µM each time.
Consider `CC1COc2c(N3CCN(C)CC3)c(F)cc3c(=O)c(-c4nnc(N/N=C/c5ccc(Cl)cc5)[nH]4)cn1c23` (stereo unspecified), for which the IC50 in experiment [4], in experiment [5], in experiment [6] and in experiment [7] was 1.4 to 52.3 µM each time.
Consider `CC1COc2c(N3CCN(C)CC3)c(F)cc3c(=O)c(-c4nnc(N/N=C/c5ccccc5)[nH]4)cn1c23` (stereo unspecified), for which the IC50 in experiment [4], in experiment [5], in experiment [6] and in experiment [7] was 1.4 to 52.3 µM each time.
For `CCn1cc(C(=O)N/N=C/c2ccc(OC)cc2)c(=O)c2cc(F)c(N3CCNCC3)cc21`, the IC50 in experiment [4], in experiment [5], in experiment [6] and in experiment [7] was 1.4 to 52.3 µM in each case.
In the case of `CCn1cc(C(=O)N/N=C/c2cc(OC)c(OC)c(OC)c2)c(=O)c2cc(F)c(N3CCNCC3)cc21`, the IC50 in experiment [4], in experiment [5], in experiment [6] and in experiment [7] was 1.4 to 52.3 µM throughout.
Consider `CC1COc2c(N3CCN(C)CC3)c(F)cc3c(=O)c(-c4nnc(SCC(=O)N/N=C/c5ccc(C(=O)O)cc5)[nH]4)cn1c23` (stereo unspecified), for which the IC50 in experiment [4], in experiment [5], in experiment [6] and in experiment [7] was 1.4 to 52.3 µM throughout.
`CCn1cc(C(=O)N/N=C/c2ccc3c(c2)OCO3)c(=O)c2cc(F)c(N3CCNCC3)cc21`: the IC50 in experiment [4], in experiment [5], in experiment [6] and in experiment [7] was 1.4 to 52.3 µM throughout.
Take `COc1cc(/C=N/Nc2nnc(-c3cn4c5c(c(N6CCN(C)CC6)c(F)cc5c3=O)OCC4C)[nH]2)cc(OC)c1OC` (stereo unspecified): the IC50 in experiment [4], in experiment [5], in experiment [6] and in experiment [7] was 1.4 to 52.3 µM each time.
In the case of `CCn1cc(-c2nnc(SCC(=O)N/N=C/c3ccccc3)o2)c(=O)c2cc(F)c(N3CCN(C)CC3)cc21`, the IC50 in experiment [4], in experiment [5], in experiment [6] and in experiment [7] was 1.4 to 52.3 µM in each case.
Turning to `CC1COc2c(N3CCN(C)CC3)c(F)cc3c(=O)c(-c4nnc(N/N=C/c5ccc([N+](=O)[O-])c6c5OCO6)[nH]4)cn1c23` (stereo unspecified), the IC50 in experiment [4], in experiment [5], in experiment [6] and in experiment [7] was 1.4 to 52.3 µM each time.
As for `CCn1cc(-c2nnc(SCC(=O)N/N=C/c3ccc(C)cc3)o2)c(=O)c2cc(F)c(N3CCN(C)CC3)cc21`, the IC50 in experiment [4], in experiment [5], in experiment [6] and in experiment [7] was 1.4 to 52.3 µM each time.
Take `CCn1cc(C(=O)N/N=C/c2ccc(Cl)cc2)c(=O)c2cc(F)c(N3CCNCC3)cc21`: the IC50 in experiment [4], in experiment [5], in experiment [6] and in experiment [7] was 1.4 to 52.3 µM each time.
For the compound `CCn1cc(C(=O)N/N=C/c2ccc(O)c(OC)c2)c(=O)c2cc(F)c(N3CCNCC3)cc21`, the IC50 in experiment [4], in experiment [5], in experiment [6] and in experiment [7] was 1.4 to 52.3 µM each time.
In the case of `CCn1cc(C(=O)N/N=C/c2ccc(F)cc2)c(=O)c2cc(F)c(N3CCNCC3)cc21`, the IC50 in experiment [4], in experiment [5], in experiment [6] and in experiment [7] was 1.4 to 52.3 µM in each case.
Consider `CCn1cc(C(=O)N/N=C/c2ccccc2O)c(=O)c2cc(F)c(N3CCNCC3)cc21`, for which the IC50 in experiment [4], in experiment [5], in experiment [6] and in experiment [7] was 1.4 to 52.3 µM throughout.
Turning to `CCn1cc(-c2nnc(SCC(=O)N/N=C/c3cc(OC)c(OC)c(OC)c3)o2)c(=O)c2cc(F)c(N3CCN(C)CC3)cc21`, the IC50 in experiment [4], in experiment [5], in experiment [6] and in experiment [7] was 1.4 to 52.3 µM throughout.
As to `CCn1cc(-c2nnc(SCC(=O)N/N=C/c3cccc([N+](=O)[O-])c3)o2)c(=O)c2cc(F)c(N3CCN(C)CC3)cc21`, the IC50 in experiment [4], in experiment [5], in experiment [6] and in experiment [7] was 1.4 to 52.3 µM in each case.
